Measured values as given in PubChem BioAssay AID248 (DTP/NCI, 2004).
“And” between values parts separate entries of the source, which are not always exact repeats. Identical values can stand only once. Inconclusive results and toxic doses are left out. Rule as the data show it: active = T/C of 150% or more; inactive = T/C below 125%.

Test system: L1210 leukemia ip in BDF1 mice, survival T/C
Assay: NCI In Vivo Anticancer Drug Screen. Data for tumor model L1210 Leukemia (intraperitoneal) in B6D2F1 (BDF1) mice
Settings: endpoint: mean survival time, higher = longer survival
Method in brief: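 Value reflects the ratio of survival in compound-treated mice to survival in vehicle-treated controls, with both groups carrying the same transplanted tumor.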

[1] = dose: 25.0 mg/kg/injection, schedule: Q04DX003 (ip), vehicle: saline
[2] = dose: 100.0 mg/kg/injection, schedule: Q01DX001 (ip), vehicle: saline
[3] = dose: 200.0 mg/kg/injection, schedule: Q01DX001 (ip), vehicle: saline
[4] = dose: 50.0 mg/kg/injection, schedule: Q01DX009 (ip), vehicle: saline with Tween-80
[5] = dose: 100.0 mg/kg/injection, schedule: Q01DX009 (ip), vehicle: saline with Tween-80
[6] = dose: 200.0 mg/kg/injection, schedule: Q01DX009 (ip), vehicle: saline with Tween-80
[7] = dose: 100.0 mg/kg/injection, schedule: Q04DX003 (ip), vehicle: saline
[8] = dose: 200.0 mg/kg/injection, schedule: Q04DX003 (ip), vehicle: saline
[9] = dose: 400.0 mg/kg/injection, schedule: Q04DX003 (ip), vehicle: saline
[10] = dose: 100.0 mg/kg/injection, schedule: Q04DX003 (ip), vehicle: saline with Tween-80
[11] = dose: 200.0 mg/kg/injection, schedule: Q04DX003 (ip), vehicle: saline with Tween-80
[12] = dose: 400.0 mg/kg/injection, schedule: Q04DX003 (ip), vehicle: saline with Tween-80
[13] = dose: 100.0 mg/kg/injection, schedule: Q01DX001 (ip), vehicle: saline with Tween-80
[14] = dose: 50.0 mg/kg/injection, schedule: Q01DX009 (ip), vehicle: Klucel (hydroxypropylcellulose) (HPC)
[15] = dose: 100.0 mg/kg/injection, schedule: Q01DX009 (ip), vehicle: Klucel (hydroxypropylcellulose) (HPC)
[16] = dose: 100.0 mg/kg/injection, schedule: Q04DX003 (ip), vehicle: Klucel (hydroxypropylcellulose) (HPC)
[17] = dose: 200.0 mg/kg/injection, schedule: Q01DX009 (ip), vehicle: Klucel (hydroxypropylcellulose) (HPC)
[18] = dose: 400.0 mg/kg/injection, schedule: Q01DX009 (ip), vehicle: Klucel (hydroxypropylcellulose) (HPC)
[19] = dose: 200.0 mg/kg/injection, schedule: Q04DX003 (ip), vehicle: Klucel (hydroxypropylcellulose) (HPC)
[20] = dose: 400.0 mg/kg/injection, schedule: Q04DX003 (ip), vehicle: Klucel (hydroxypropylcellulose) (HPC)

Measured: T/C

CN(C=O)C(=S)[S-].CN(C=O)C(=S)[S-].CN(C=O)C(=S)[S-].O=C(Nc1ccc(S(=O)(=O)Nc2ccc(N=Nc3ccc4nc([S-])sc4c3)cc2)cc1)C(N1CC1)(N1CC1)N1CC1.[Pd]
inactive: dose: 6.25 mg/kg/injection, schedule: Q01DX009 (ip), vehicle: saline 109 % of control | dose: 6.25 mg/kg/injection, schedule: Q04DX003 (ip), vehicle: saline 108 % of control | dose: 12.5 mg/kg/injection, schedule: Q01DX009 (ip), vehicle: saline 101 % of control | dose: 12.5 mg/kg/injection, schedule: Q04DX003 (ip), vehicle: saline 106 % of control | dose: 25.0 mg/kg/injection, schedule: Q01DX009 (ip), vehicle: saline 98 % of control | [1] 103 % of control

CCP(c1ccccc1)c1ccccc1
inactive: dose: 75.0 mg/kg/injection, schedule: Q01DX009 (ip), vehicle: saline sonified 101 % of control | dose: 100.0 mg/kg/injection, schedule: Q01DX001 (ip), vehicle: saline sonified 92 % of control | dose: 150.0 mg/kg/injection, schedule: Q01DX009 (ip), vehicle: saline sonified 94 % of control | dose: 200.0 mg/kg/injection, schedule: Q01DX001 (ip), vehicle: saline sonified 97 % of control | dose: 300.0 mg/kg/injection, schedule: Q01DX009 (ip), vehicle: saline sonified 106 % of control | dose: 400.0 mg/kg/injection, schedule: Q01DX001 (ip), vehicle: saline sonified 103 % of control

O=[N+]([O-])c1ccc(O)cc1
inactive: dose: 12.5 mg/kg/injection, schedule: Q04DX003 (ip), vehicle: saline + alcohol 103 % of control | dose: 25.0 mg/kg/injection, schedule: Q04DX003 (ip), vehicle: saline + alcohol 100 % of control | dose: 50.0 mg/kg/injection, schedule: Q04DX003 (ip), vehicle: saline + alcohol 108 % of control | [2] 113 % of control | dose: 100.0 mg/kg/injection, schedule: Q04DX002 (ip), vehicle: saline with Tween-80 102 % of control | [3] 101 % of control | dose: 200.0 mg/kg/injection, schedule: Q04DX002 (ip), vehicle: saline with Tween-80 91 % of control

COC(C(=O)O)c1cccs1 (centres undefined)
inactive: [4] 91 % of control | [5] 86 % of control | [6] 100 % of control

Cc1ccc([As+](c2ccccc2)(c2ccccc2)c2ccccc2)cc1
inactive: dose: 5.0 mg/kg/injection, schedule: Q01DX001 (ip), vehicle: saline 101 % of control | dose: 10.0 mg/kg/injection, schedule: Q01DX001 (ip), vehicle: saline 95 % of control | dose: 20.0 mg/kg/injection, schedule: Q01DX001 (ip), vehicle: saline 96 % of control

CCOC(=O)CCC(NC(=O)c1cc([N+](=O)[O-])cc([N+](=O)[O-])c1)C(=O)OCC (centres undefined)
inactive: [7] 100 % of control | [8] 97 % of control | [9] 97 % of control

O=C1CSC(=S)N1c1cccc(C(F)(F)F)c1
inactive: [10] 108 % of control | [11] 101 % of control | [12] 104 % of control

CC1(C)N=C(N)N=C(N)N1c1cccc(OCCC#N)c1
inactive: [1] 112 % of control | dose: 50.0 mg/kg/injection, schedule: Q04DX003 (ip), vehicle: saline 108 % of control | [7] 100 % of control and 104 % of control

CC1(C)OC2OC(C(O)CSCc3ccccc3)C(O)C2O1 (centres undefined)
inactive: [4] 94 % of control | [13] 92 % of control | [5] 93 % of control | dose: 200.0 mg/kg/injection, schedule: Q01DX001 (ip), vehicle: saline with Tween-80 89 % of control | [6] 97 % of control

CC(C)C1=CC23CCC4C(C)(C(=O)O)CCCC4(C)C2CC1C1C(=O)OC(=O)C13 (centres undefined)
inactive: dose: 25.0 mg/kg/injection, schedule: Q01DX009 (ip), vehicle: Klucel (hydroxypropylcellulose) (HPC) 106 % of control | dose: 25.0 mg/kg/injection, schedule: Q04DX003 (ip), vehicle: Klucel (hydroxypropylcellulose) (HPC) 103 % of control | [14] 102 % of control | dose: 50.0 mg/kg/injection, schedule: Q04DX003 (ip), vehicle: Klucel (hydroxypropylcellulose) (HPC) 101 % of control | [15] 102 % of control | [16] 95 % of control | [17] 91 % of control

O=c1nc2n(CC(O)C(O)C(O)CO)c3ccccc3cc-2c(=O)[nH]1 (centres undefined)
inactive: [2] 90 % of control | [3] 90 % of control | dose: 400.0 mg/kg/injection, schedule: Q01DX001 (ip), vehicle: saline 93 % of control

Cn1cnc(N)c1C(N)=S
inactive: [7] 100 % of control | [17] 98 % of control | [8] 92 % of control | [18] 92 % of control | [9] 104 % of control

O=C(Oc1cc(OC(=O)c2ccccc2)cc(OC(=O)c2ccccc2)c1)c1ccccc1
inactive: [15] 95 % of control | [16] 100 % of control | [17] 95 % of control | [19] 100 % of control | [18] 95 % of control | [20] 100 % of control

CC1(C)OCC2OC(N)C(O)C2O1 (centres undefined)
inactive: [7] 100 % of control | [8] 89 % of control | [9] 98 % of control

COc1ccc(OC)c(NC(=O)Nc2ccc(N(C)C(C)=O)cc2)c1
inactive: [16] 90 % of control | [19] 87 % of control | [20] 88 % of control

CONC(=O)Nc1cccc2ccccc12
inactive: dose: 75.0 mg/kg/injection, schedule: Q01DX001 (ip), vehicle: other 100 % of control | dose: 75.0 mg/kg/injection, schedule: Q04DX003 (ip), vehicle: other 97 % of control | dose: 150.0 mg/kg/injection, schedule: Q01DX001 (ip), vehicle: other 110 % of control | dose: 150.0 mg/kg/injection, schedule: Q04DX003 (ip), vehicle: other 96 % of control | dose: 300.0 mg/kg/injection, schedule: Q01DX001 (ip), vehicle: other 106 % of control | dose: 300.0 mg/kg/injection, schedule: Q04DX003 (ip), vehicle: other 100 % of control

CC1CCC(C(C)C)C(OC(=O)c2c([N+](=O)[O-])ccc([N+](=O)[O-])c2Br)C1 (centres undefined)
inactive: [15] 105 % of control | [17] 100 % of control

O=c1[nH]c(NCCCCc2ccccc2)c(Br)c(=O)[nH]1
inactive: dose: 25.0 mg/kg/injection, schedule: Q01DX001 (ip), vehicle: saline with Tween-80 98 % of control | dose: 50.0 mg/kg/injection, schedule: Q01DX001 (ip), vehicle: saline with Tween-80 97 % of control | [13] 98 % of control

CCOC(=O)Nc1cc(N)cc(NC(=O)OCC)c1
inactive: [14] 101 % of control | [15] 104 % of control | [17] 106 % of control

NC(=O)NC(=O)NCc1ccccc1
inactive: dose: 100.0 mg/kg/injection, schedule: Q04DX002 (ip), vehicle: Klucel (hydroxypropylcellulose) (HPC) 98 % of control | dose: 200.0 mg/kg/injection, schedule: Q04DX002 (ip), vehicle: Klucel (hydroxypropylcellulose) (HPC) 94 % of control | dose: 400.0 mg/kg/injection, schedule: Q04DX002 (ip), vehicle: Klucel (hydroxypropylcellulose) (HPC) 94 % of control

COc1ccccc1NC(=O)NO
inactive: dose: 100.0 mg/kg/injection, schedule: Q01DX001 (ip), vehicle: carboxymethylcellulose (CMC) 97 % of control | dose: 200.0 mg/kg/injection, schedule: Q01DX001 (ip), vehicle: carboxymethylcellulose (CMC) 97 % of control | dose: 400.0 mg/kg/injection, schedule: Q01DX001 (ip), vehicle: carboxymethylcellulose (CMC) 100 % of control

N#CC(NC(=O)NCCO)c1ccccc1 (centres undefined)
inactive: [10] 107 % of control | [11] 96 % of control | [12] 101 % of control
